In ChEMBL document CHEMBL3853357, “Discovery of a Series of 5,11-Dihydro-6H-benzo[e]pyrimido[5,4-b][1,4]diazepin-6-ones as Selective PI3K-δ/γ Inhibitors” (ACS Med Chem Lett, 2016):
Active and inactive are the calls of the source. The calls are words filed in the database; no cut-off is given here.

Legend:
Aurora kinase B = Aurora kinase B (Homo sapiens, UniProt Q96GD4); assay: Inhibition of human Aurora kinase B (D25 to A303 residues) expressed in mammalian expression system by Z'LYTE assay
Aurora kinase A = target: T1, Aurora kinase A (Homo sapiens, UniProt O14965); assay: Inhibition of human Aurora kinase A (E122 to K401 residues) expressed in mammalian expression system by Z'LYTE assay
T1 sequence (O14965 whole entry): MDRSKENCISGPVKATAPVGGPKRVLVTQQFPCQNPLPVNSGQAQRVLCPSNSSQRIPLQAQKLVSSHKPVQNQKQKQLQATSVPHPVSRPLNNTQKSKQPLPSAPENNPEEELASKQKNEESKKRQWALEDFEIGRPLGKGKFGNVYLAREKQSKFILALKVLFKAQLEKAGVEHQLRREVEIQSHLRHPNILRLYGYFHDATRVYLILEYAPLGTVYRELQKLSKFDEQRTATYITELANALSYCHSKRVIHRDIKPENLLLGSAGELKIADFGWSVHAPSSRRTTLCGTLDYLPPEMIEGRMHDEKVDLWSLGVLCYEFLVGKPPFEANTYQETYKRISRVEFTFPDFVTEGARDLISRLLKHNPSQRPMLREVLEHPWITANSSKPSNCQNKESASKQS

[1] = target: Phosphatidylinositol 4,5-bisphosphate 3-kinase catalytic subunit gamma isoform (Homo sapiens, UniProt P48736); assay: Inhibition of human PI3Kgamma (S144 to A1102 residues) expressed in mammalian expression system incubated for 60 mins by ADAPTA assay
Sequence of Phosphatidylinositol 4,5-bisphosphate 3-kinase catalytic subunit gamma isoform (P48736 whole entry, the tested form may be a part, canonical isoform): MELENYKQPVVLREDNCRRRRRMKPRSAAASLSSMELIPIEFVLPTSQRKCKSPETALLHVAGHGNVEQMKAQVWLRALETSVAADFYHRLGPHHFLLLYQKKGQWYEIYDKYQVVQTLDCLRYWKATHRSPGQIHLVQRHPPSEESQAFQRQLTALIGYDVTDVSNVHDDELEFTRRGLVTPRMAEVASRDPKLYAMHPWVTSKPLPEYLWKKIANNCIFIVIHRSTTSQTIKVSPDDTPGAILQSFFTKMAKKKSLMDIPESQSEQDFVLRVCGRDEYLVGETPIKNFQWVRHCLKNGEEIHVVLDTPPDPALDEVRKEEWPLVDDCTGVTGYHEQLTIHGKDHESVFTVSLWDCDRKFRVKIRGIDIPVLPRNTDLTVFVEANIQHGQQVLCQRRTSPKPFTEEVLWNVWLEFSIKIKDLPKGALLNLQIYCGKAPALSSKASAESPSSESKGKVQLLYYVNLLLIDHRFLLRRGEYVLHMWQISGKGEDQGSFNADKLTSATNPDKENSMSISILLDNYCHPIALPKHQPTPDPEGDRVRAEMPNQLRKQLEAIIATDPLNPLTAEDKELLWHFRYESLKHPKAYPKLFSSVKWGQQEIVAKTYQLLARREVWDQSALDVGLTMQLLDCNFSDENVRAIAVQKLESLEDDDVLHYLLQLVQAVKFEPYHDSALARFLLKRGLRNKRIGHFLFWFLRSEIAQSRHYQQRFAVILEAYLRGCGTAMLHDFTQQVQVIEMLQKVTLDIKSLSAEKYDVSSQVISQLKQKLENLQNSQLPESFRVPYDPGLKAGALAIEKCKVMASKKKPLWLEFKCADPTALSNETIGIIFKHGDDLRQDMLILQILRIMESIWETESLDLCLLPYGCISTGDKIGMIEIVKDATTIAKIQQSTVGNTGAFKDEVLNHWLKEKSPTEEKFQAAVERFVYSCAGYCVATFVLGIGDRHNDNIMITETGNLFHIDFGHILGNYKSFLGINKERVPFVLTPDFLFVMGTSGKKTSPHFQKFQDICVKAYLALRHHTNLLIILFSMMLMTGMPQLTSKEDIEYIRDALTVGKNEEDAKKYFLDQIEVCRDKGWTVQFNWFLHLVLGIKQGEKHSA

[2] = target: T2, Phosphatidylinositol 4,5-bisphosphate 3-kinase catalytic subunit delta isoform (Homo sapiens, UniProt O00329); assay: Inhibition of human PI3Kdelta (R108 to Q1044 residues) expressed in mammalian expression system incubated for 60 mins by ADAPTA assay
T2 sequence (O00329 whole entry): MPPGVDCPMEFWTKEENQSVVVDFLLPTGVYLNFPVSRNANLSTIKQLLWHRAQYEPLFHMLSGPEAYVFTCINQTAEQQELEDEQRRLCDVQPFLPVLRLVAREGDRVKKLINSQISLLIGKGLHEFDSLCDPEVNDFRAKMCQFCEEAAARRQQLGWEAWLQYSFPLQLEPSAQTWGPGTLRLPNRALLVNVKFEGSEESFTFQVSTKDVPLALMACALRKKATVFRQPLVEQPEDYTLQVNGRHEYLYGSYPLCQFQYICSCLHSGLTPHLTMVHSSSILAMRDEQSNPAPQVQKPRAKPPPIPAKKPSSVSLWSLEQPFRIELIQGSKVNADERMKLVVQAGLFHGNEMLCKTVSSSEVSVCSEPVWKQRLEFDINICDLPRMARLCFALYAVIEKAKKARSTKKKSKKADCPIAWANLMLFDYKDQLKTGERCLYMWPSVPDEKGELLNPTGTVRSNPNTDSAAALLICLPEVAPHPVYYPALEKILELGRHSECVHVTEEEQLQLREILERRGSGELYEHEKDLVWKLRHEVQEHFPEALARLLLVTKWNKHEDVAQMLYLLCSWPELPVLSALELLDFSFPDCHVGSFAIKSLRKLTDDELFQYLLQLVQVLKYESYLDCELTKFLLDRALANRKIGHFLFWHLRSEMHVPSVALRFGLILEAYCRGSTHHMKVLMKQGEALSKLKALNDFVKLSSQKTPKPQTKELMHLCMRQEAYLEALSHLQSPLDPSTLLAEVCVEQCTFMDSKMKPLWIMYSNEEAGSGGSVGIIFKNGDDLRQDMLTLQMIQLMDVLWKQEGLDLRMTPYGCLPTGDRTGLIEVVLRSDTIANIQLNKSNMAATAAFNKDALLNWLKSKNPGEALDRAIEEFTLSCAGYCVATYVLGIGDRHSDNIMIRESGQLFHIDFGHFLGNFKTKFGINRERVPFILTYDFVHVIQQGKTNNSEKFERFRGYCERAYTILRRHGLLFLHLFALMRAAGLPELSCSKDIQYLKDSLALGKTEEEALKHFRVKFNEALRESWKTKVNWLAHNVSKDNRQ

[3] = Antiproliferative activity against human Jurkat cells after 3 days by CellTiter-Glo assay; type: functional, cell-based; conditions: 72 h
[4] = target: T3, Phosphatidylinositol 5-phosphate 4-kinase type-2 gamma (Homo sapiens) (UniProt Q8TBX8); assay: Inhibition of human PIP5K2C (M1 to A421 residues) expressed at 1 uM
T3 sequence (whole entry): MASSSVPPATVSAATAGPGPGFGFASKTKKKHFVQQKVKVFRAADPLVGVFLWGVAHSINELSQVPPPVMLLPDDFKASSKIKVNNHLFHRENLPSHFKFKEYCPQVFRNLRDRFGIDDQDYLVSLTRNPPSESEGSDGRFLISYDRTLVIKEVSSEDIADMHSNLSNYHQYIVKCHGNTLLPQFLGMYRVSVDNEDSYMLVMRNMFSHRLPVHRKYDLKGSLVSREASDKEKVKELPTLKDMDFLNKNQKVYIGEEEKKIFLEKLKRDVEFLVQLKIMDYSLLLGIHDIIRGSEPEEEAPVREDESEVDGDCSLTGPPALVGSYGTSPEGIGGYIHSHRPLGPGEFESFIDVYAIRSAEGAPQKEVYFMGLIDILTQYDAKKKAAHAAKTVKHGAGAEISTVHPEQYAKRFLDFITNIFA

[5] = Antiproliferative activity against human MOLT4 cells after 3 days by CellTiter-Glo assay; type: functional, cell-based; conditions: MOLT-4, 72 h
[6] = Antiproliferative activity against human Loucy cells after 3 days by CellTiter-Glo assay; type: functional, cell-based; conditions: 72 h
[7] = Antiproliferative activity against human MV4-11 cells after 3 days by CellTiter-Glo assay; type: functional, cell-based; conditions: MV4-11, 72 h
[8] = (§1) Antiproliferative activity against patient-derived IgM-stimulated CLL cells after 3 days by CellTiter-Glo assay; type: functional, cell-based; conditions: Homo sapiens, 72 h
CLL = assay: as §1; type: functional, cell-based; conditions: Homo sapiens
[9] = Antiproliferative activity against human MOLM14 cells after 3 days by CellTiter-Glo assay; type: functional, cell-based; conditions: MOLM-14, 72 h
[10] = target: Phosphatidylinositol 4,5-bisphosphate 3-kinase catalytic subunit beta isoform (Homo sapiens) (UniProt P42338); assay: Inhibition of p110beta in HMEC assessed as reduction in S6RP phosphorylation at Ser-235/236 residue at 0.01 to 1 uM after 1 hr by Western blot analysis
Sequence of Phosphatidylinositol 4,5-bisphosphate 3-kinase catalytic subunit beta isoform (Homo sapiens) (P42338 whole entry, looked up, canonical isoform): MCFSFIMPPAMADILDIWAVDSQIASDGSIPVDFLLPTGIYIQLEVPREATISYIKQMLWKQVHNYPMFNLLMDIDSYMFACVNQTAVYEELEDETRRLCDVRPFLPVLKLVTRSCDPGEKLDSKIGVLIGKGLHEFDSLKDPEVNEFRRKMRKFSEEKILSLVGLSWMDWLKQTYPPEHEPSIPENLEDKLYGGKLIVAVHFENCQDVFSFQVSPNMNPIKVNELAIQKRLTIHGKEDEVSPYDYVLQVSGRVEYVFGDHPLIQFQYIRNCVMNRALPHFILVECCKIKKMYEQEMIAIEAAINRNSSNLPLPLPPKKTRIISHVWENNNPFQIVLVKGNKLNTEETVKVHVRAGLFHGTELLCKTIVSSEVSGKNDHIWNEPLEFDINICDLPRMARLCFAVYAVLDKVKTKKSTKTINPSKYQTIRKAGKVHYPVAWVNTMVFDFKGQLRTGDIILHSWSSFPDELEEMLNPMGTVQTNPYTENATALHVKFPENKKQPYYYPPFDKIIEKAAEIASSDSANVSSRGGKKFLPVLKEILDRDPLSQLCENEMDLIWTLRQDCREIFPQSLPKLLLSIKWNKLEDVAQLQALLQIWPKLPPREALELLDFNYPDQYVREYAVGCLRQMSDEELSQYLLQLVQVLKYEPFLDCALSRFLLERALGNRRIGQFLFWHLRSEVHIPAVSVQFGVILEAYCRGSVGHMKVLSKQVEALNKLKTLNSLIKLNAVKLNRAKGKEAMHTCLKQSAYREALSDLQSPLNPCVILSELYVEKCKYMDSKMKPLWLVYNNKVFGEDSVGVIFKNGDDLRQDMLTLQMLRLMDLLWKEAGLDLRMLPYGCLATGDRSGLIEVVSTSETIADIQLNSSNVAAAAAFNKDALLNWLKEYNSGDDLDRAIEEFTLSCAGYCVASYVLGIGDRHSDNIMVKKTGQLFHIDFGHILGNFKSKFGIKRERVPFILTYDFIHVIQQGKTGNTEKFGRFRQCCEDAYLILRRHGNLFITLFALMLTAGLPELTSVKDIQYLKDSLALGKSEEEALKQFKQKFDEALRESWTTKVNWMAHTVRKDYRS

[11] = target: Phosphatidylinositol 4,5-bisphosphate 3-kinase catalytic subunit beta isoform (Homo sapiens) (UniProt P42338); assay: Inhibition of p110beta in HMEC assessed as reduction in Akt phosphorylation at Ser-473 residue at 0.01 to 1 uM after 1 hr by Western blot analysis
[12] = target: Phosphatidylinositol 4,5-bisphosphate 3-kinase catalytic subunit beta isoform (Homo sapiens) (UniProt P42338); assay: Inhibition of p110beta in HMEC assessed as reduction in Akt phosphorylation at Thr-308 residue at 0.01 to 1 uM after 1 hr by Western blot analysis

Sequence of Aurora kinase B (Q96GD4 whole entry, the tested form may be a part): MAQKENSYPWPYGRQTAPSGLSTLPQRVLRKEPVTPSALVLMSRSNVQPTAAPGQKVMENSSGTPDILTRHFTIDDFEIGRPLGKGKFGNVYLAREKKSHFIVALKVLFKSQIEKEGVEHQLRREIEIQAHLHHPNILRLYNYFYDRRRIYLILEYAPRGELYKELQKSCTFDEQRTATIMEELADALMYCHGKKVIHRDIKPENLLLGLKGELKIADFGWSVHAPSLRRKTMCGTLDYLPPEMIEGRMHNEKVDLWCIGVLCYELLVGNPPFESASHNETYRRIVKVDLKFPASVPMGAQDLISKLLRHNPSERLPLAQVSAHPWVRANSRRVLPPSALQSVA

Row | IC50 [1] [nM] | IC50 [2] [nM] | Structure (SMILES) | other results
1 | 560 | 51 | Cc1ccc2c(c1)C(=O)N(C)c1cnc(Nc3cccc(S(=O)(=O)N4CCN(C)CC4)c3)nc1N2C | –
2 | 2.8 | 1.5 | C=CC(=O)N1CCN(S(=O)(=O)c2cccc(Nc3ncc4c(n3)N(C)c3ccc(C)cc3C(=O)N4C)c2)CC1 | IC50 [3]: 166 nM; inhibition [4]: Active; IC50 [5]: 33 nM
3 | 3300 | 2600 | Cc1ccc2c(c1)C(=O)N(C)c1cnc(Nc3ccc(S(=O)(=O)N4CCN(C)CC4)cc3)nc1N2C | –
4 | 11 | 1.7 | CCC(=O)N1CCN(S(=O)(=O)c2cccc(Nc3ncc4c(n3)N(C)c3ccc(C)cc3C(=O)N4C)c2)CC1 | IC50 [6]: 720 nM; IC50 [7]: 960 nM; IC50 [3]: 1600 nM; IC50 [8]: 3000 nM; Activity (CLL): Dose-dependent effect; IC50 [9]: 610 nM; IC50 [5]: 1200 nM
5 | 58 | 41 | Cc1ccc2c(c1)C(=O)N(C)c1cnc(Nc3ccc(S(=O)(=O)N4CCC(O)CC4)cc3)nc1N2C | –
6 | 20 | 30 | Cc1ccc2c(c1)C(=O)N(C)c1cnc(Nc3ccc(S(N)(=O)=O)cc3)nc1N2C | IC50 (Aurora kinase B): 4.2 nM; IC50 (Aurora kinase A): 16 nM
7 | 110 | 230 | C=CC(=O)N1CCN(S(=O)(=O)c2ccc(Nc3ncc4c(n3)N(C)c3ccc(C)cc3C(=O)N4C)cc2)CC1 | –
8 | 310 | 96 | C=CC(=O)Nc1ccc(NS(=O)(=O)c2ccc(Nc3ncc4c(n3)N(C)c3ccc(C)cc3C(=O)N4C)cc2)cc1 | –
9 | 49 | 120 | C=CC(=O)NC1CCN(S(=O)(=O)c2ccc(Nc3ncc4c(n3)N(C)c3ccc(C)cc3C(=O)N4C)cc2)CC1 | –
10 | 6.5 | 2.1 | Cc1ccc2c(c1)C(=O)N(C)c1cnc(Nc3cccc(S(=O)(=O)N4CCC(O)CC4)c3)nc1N2C | IC50 [6]: 350 nM; IC50 [7]: 620 nM; IC50 [3]: 1400 nM; IC50 [8]: > 10000 nM; IC50 [9]: 1000 nM; IC50 [5]: 1300 nM
11 | 120 | 20 | C=CC(=O)NC1CCN(S(=O)(=O)c2cccc(Nc3ncc4c(n3)N(C)c3ccc(C)cc3C(=O)N4C)c2)CC1 | IC50 (Aurora kinase A): 350 nM

The remaining lines, values behind:

Row | Structure (SMILES) | IC50 [1] [nM] | IC50 [2] [nM] | other results
12 | CN1C(=O)c2ccccc2N(C)c2nc(Nc3ccc(S(N)(=O)=O)cc3)ncc21 | 15 | 49 | IC50 (Aurora kinase B): 13 nM; IC50 (Aurora kinase A): 4.8 nM
13 | C=CC(=O)Nc1cccc(NS(=O)(=O)c2ccc(Nc3ncc4c(n3)N(C)c3ccc(C)cc3C(=O)N4C)cc2)c1 | 340 | 440 | –
14 | Cc1ccc2c(c1)C(=O)N(C)c1cnc(Nc3cccc(S(N)(=O)=O)c3)nc1N2C | 110 | 76 | –
15 | C=CC(=O)Nc1cccc(NS(=O)(=O)c2cccc(Nc3ncc4c(n3)N(C)c3ccc(C)cc3C(=O)N4C)c2)c1 | 330 | 39 | –
16 | CC[C@H](Nc1ncnc2[nH]cnc12)c1nc2cccc(F)c2c(=O)n1-c1ccccc1 [IDELALISIB] | – | – | IC50 [8]: > 10000 nM
17 | C=CC(=O)Nc1ccc(NS(=O)(=O)c2cccc(Nc3ncc4c(n3)N(C)c3ccc(C)cc3C(=O)N4C)c2)cc1 | 15 | 29 | –
18 | CN1C(=O)c2ccccc2N(C)c2nc(Nc3cccc(S(N)(=O)=O)c3)ncc21 | 4.3 | 4.1 | IC50 (Aurora kinase B): 4.6 nM; IC50 (Aurora kinase A): 2.1 nM
19 | Cc1cc(S(N)(=O)=O)ccc1Nc1ncc2c(n1)N(C)c1ccccc1C(=O)N2C | 2400 | 820 | IC50 (Aurora kinase B): 9400 nM; IC50 (Aurora kinase A): 4900 nM
20 | C[C@H](Nc1ncnc2nc[nH]c12)c1cc2cccc(Cl)c2c(=O)n1-c1ccccc1 [DUVELISIB] | – | – | inhibition [10]: Active; IC50 [6]: 980 nM; IC50 [7]: 4400 nM; IC50 [3]: 1900 nM; IC50 [8]: > 10000 nM; inhibition [11]: Active; inhibition [12]: Active; IC50 [9]: 1200 nM; IC50 [5]: 2300 nM
